Reference: patent publication US20220204498A1, “PYRIDO-PYRIMIDINYL COMPOUNDS AND METHODS OF USE” (Genentech, Inc., priority 2019, published 2022)
Where a name gives a salt, the structure may show the parent alone.

The molecules below were run against T1, IRE1α (Homo sapiens, UniProt O75460, D688N) (assay: IRE1α TR-FRET competition binding assay (IRE1α HTRF)). Conditions: His-tagged IRE1α kinase dead construct (KR, D688N) 0.25 nM; Alexa fluor 647-labeled ATP competitive probe 2 nM; one hour at room temperature; read-out: IRE1α (alpha) HTRF (IC50).
T1 construct: containing the kinase and RNase domains (KR, AA G547-1L977, D688N); made in house; host or cells: Sf9 insect cells
T1 sequence (O75460 547-977 D688N): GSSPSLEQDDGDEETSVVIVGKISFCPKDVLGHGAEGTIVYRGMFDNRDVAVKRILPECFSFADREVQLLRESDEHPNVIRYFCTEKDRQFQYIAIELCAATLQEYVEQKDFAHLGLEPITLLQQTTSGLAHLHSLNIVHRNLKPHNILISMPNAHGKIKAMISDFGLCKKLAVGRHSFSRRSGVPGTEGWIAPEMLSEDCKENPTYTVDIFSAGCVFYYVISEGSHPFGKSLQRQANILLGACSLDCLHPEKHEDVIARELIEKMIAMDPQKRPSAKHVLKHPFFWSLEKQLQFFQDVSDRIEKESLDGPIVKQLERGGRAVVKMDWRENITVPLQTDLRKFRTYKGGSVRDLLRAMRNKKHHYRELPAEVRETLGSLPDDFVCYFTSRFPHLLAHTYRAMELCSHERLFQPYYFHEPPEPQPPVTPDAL
Procedure: Example 59. IRE1α TR-FRET Competition Binding Assay
To determine the affinity of compound binding to the kinase domain of IRE1α, a time-resolved fluorescence resonance energy transfer (TR-FRET) competition assay was used.
A His-tagged IRE1α kinase dead construct containing the kinase and RNase domains (KR, AA G547-1L977, D688N) was expressed in Sf9 insect cells. The purified protein (final concentration 0.25 nM) was pre-incubated with anti-His Europium labeled antibody (Life Technologies PV5596, final concentration 2 nM) for one hour at 4° C. in TR-FRET Assay Buffer (50 mM HEPES, pH 7.5, 10 mM MgCl2, 0.083 mM Brij 35, 1 mM DTT, and 0.1% bovine gamma globulin) prior to addition to test compounds. An Alexa fluor 647-labeled probe based on an ATP competitive inhibitor was added to a final concentration of 2 nM. Reactions were carried out for one hour at room temperature in a final volume of 20 μL in 384 well white ProxiPlates (Perkin Elmer 6008289). Binding of the probe to the IRE1α protein was detected in an Envision instrument (PerkinElmer) equipped with a TRF laser option and a LANCE/Delfia Dual/Bias D400/D630 mirror (Ex 347 nm, 1st Em 665 nm, 2nd Em 615 nm).
`CC(C)c1cc(-c2ccc(NS(=O)(=O)CCC(F)(F)F)c(F)c2)nc2cnc(N[C@H]3CC[C@H](N(C)C)CC3)nc12` [Compound 124, N-(4-(2-(((1,4-trans)-4-(Dimethylamino)cyclohexyl)amino)-8-isopropylpyrido[3,2-d]pyrimidin-6-yl)-2-fluorophenyl)-3,3,3-trifluoropropane-1-sulfonamide] was tested, and the IC50 was 0.16 nM.
With `Cc1nc(NS(=O)(=O)c2ccccc2C#N)ccc1-c1cc(C)c2nc(N[C@H]3CC[C@H](N(C)C)CC3)ncc2n1` [Compound 159, 2-Cyano-N-(5-(2-(((1,4-trans)-4-(dimethylamino)cyclohexyl)amino)-8-methylpyrido[3,2-d]pyrimidin-6-yl)-6-methylpyridin-2-yl)benzenesulfonamide] the IC50 was 0.33 nM.
With `Cc1cc(-c2ccc(NS(=O)(=O)c3ccccn3)c(F)c2)nc2cnc(N[C@H]3CC[C@H](N(C)C)CC3)nc12` [Compound 158, N-(4-(2-(((1,4-trans)-4-(Dimethylamino)cyclohexyl)amino)-8-methylpyrido[3,2-d]pyrimidin-6-yl)-2-fluorophenyl)pyridine-2-sulfonamide] the IC50 was 0.2 nM.
For `CC(Oc1nc2nc(N[C@@H]3CNC[C@@H](F)C3)ncc2cc1-c1ccc(NS(=O)(=O)Cc2ccccc2)c(F)c1F)C(F)F` (single isomer, unassigned) [Compound 102], the IC50 was 1.1 nM.
`Cc1nc(NS(=O)(=O)CCC(F)(F)F)ccc1-c1cc(C)c2nc(N[C@H]3CC[C@H](N(C)C)CC3)ncc2n1` [Compound 126, N-(5-(2-(((1,4-trans)-4-(Dimethylamino)cyclohexyl)amino)-8-methylpyrido[3,2-d]pyrimidin-6-yl)-6-methylpyridin-2-yl)-3,3,3-trifluoropropane-1-sulfonamide] showed an IC50 of 18 nM.
Molecule `CCc1cc(-c2ccc(NS(=O)(=O)c3ccccc3OC(F)F)nc2C)nc2cnc(N[C@H]3CC[C@H](N(C)C)CC3)nc12` [Compound 148, 2-(Difluoromethoxy)-N-(5-(2-(((1,4-trans)-4-(dimethylamino)cyclohexyl)amino)-8-ethylpyrido[3,2-d]pyrimidin-6-yl)-6-methylpyridin-2-yl)benzenesulfonamide] has an IC50 of 0.51 nM.
For `Cc1cc(NS(=O)(=O)c2ccccc2Cl)ncc1-c1cc(C)c2nc(N[C@H]3CC[C@H](N(C)C)CC3)ncc2n1` [Compound 149, 2-Chloro-N-(5-(2-(((1,4-trans)-4-(dimethylamino)cyclohexyl)amino)-8-methylpyrido[3,2-d]pyrimidin-6-yl)-4-methylpyridin-2-yl)benzenesulfonamide], the IC50 was 3.3 nM.
`Cc1nc(NS(=O)(=O)c2ccccc2Cl)ccc1-c1cc(C(F)F)c2nc(N[C@H]3CC[C@H](N(C)C)CC3)ncc2n1` [Compound 145, 2-Chloro-N-[5-[8-(difluoromethyl)-2-[[(1,4-trans)-4-(dimethylamino)cyclohexyl]amino]pyrido[3,2-d]pyrimidin-6-yl]-6-methyl-2-pyridyl]benzenesulfonamide] was tested, and the IC50 was 0.25 nM.
`Cc1cc(-c2ccc(NS(=O)(=O)Cc3ccc(F)cc3)c(F)c2)nc2cnc(N[C@@H]3CNC[C@@H](F)C3)nc12` [Compound 121, N-(2-Fluoro-4-(2-(((3S,5S)-5-fluoropiperidin-3-yl)amino)-8-methylpyrido[3,2-d]pyrimidin-6-yl)phenyl)-1-(4-fluorophenyl)methanesulfonamide formate] was tested, and the IC50 was 0.27 nM.
For `Cc1cc(-c2ccc(NS(=O)(=O)c3ccccc3C#N)c(F)c2)nc2cnc(N[C@H]3CC[C@H](N(C)C)CC3)nc12` [Compound 150, 2-Cyano-N-[(1,4-trans)-4-[2-[[4-(dimethylamino)cyclohexyl]amino]-8-methyl-pyrido[3,2-d]pyrimidin-6-yl]-2-fluoro-phenyl]benzenesulfonamide], the IC50 was 0.15 nM.
In the case of `Cc1nc(NS(=O)(=O)c2ccccc2Cl)ccc1-c1cc(C)c2nc(N[C@@H]3CNC[C@@H](F)C3)ncc2n1` [Compound 136, 2-Chloro-N-(5-(2-(((3S,5S)-5-fluoropiperidin-3-yl)amino)-8-methylpyrido[3,2-d]pyrimidin-6-yl)-6-methylpyridin-2-yl)benzenesulfonamide], the IC50 is reported as 14 nM.
With `Cc1cc(-c2cc(F)c(NS(=O)(=O)c3ccccc3Cl)c(F)c2F)nc2cnc(N[C@H]3CC[C@H](N(C)C)CC3)nc12` [Compound 155, 2-Chloro-N-(4-(2-(((1,4-trans)-4-(dimethylamino)cyclohexyl)amino)-8-methylpyrido[3,2-d]pyrimidin-6-yl)-2,3,6-trifluorophenyl)benzenesulfonamide] the IC50 was 0.19 nM.
`COc1cc(-c2ccc(NS(=O)(=O)CCC(F)(F)F)c(F)c2)nc2cnc(N[C@H]3CC[C@H](N(C)C)CC3)nc12` [Compound 118, N-(4-(2-(((1,4-trans)-4-(Dimethylamino)cyclohexyl)amino)-8-methoxypyrido[3,2-d]pyrimidin-6-yl)-2-fluorophenyl)-3,3,3-trifluoropropane-1-sulfonamide formate] showed an IC50 of 22 nM.
`CCC(F)(F)CS(=O)(=O)Nc1ccc(-c2cc(C)c3nc(N[C@H]4CC[C@H](N(C)C)CC4)ncc3n2)cc1F` [Compound 117, N-(4-(2-(((1,4-trans)-4-(Dimethylamino)cyclohexyl)amino)-8-methylpyrido[3,2-d]pyrimidin-6-yl)-2-fluorophenyl)-2,2-difluorobutane-1-sulfonamide formate] gave an IC50 of 0.11 nM.
`Cc1cc(-c2ccc(NS(=O)(=O)c3ccccc3Cl)c(F)c2)nc2cnc(N[C@H]3CC[C@H](N(C)C)CC3)nc12` [Compound 128, 2-Chloro-N-(4-(2-(((1,4-trans)-4-(dimethylamino)cyclohexyl)amino)-8-methylpyrido[3,2-d]pyrimidin-6-yl)-2-fluorophenyl)benzenesulfonamide] gave an IC50 of 0.16 nM.
`Cc1cc(-c2cc(F)c(NS(=O)(=O)Cc3ccccc3)c(F)c2)nc2cnc(N[C@@H]3CNC[C@@H](F)C3)nc12` [Compound 108, N-(2,6-Difluoro-4-(2-(((3S,5S)-5-fluoropiperidin-3-yl)amino)-8-methylpyrido[3,2-d]pyrimidin-6-yl)phenyl)-1-phenylmethanesulfonamide] was tested, and the IC50 was 0.2 nM.
In the case of `CCc1cc(-c2ccc(NS(=O)(=O)CCC(F)(F)F)c(F)c2)nc2cnc(N[C@H]3CC[C@H](N(C)C)CC3)nc12` [Compound 114, N-(4-(2-(((1,4-trans)-4-(Dimethylamino)cyclohexyl)amino)-8-ethylpyrido[3,2-d]pyrimidin-6-yl)-2-fluorophenyl)-3,3,3-trifluoropropane-1-sulfonamide], the IC50 is reported as 0.08 nM.
In the case of `CCc1cc(-c2ccc(NS(=O)(=O)c3ccccc3C(F)F)nc2C)nc2cnc(N[C@H]3CC[C@H](N(C)C)CC3)nc12` [Compound 147, 2-(Difluoromethyl)-N-(5-(2-(((1,4-trans)-4-(dimethylamino)cyclohexyl)amino)-8-ethylpyrido[3,2-d]pyrimidin-6-yl)-6-methylpyridin-2-yl)benzenesulfonamide], the IC50 is reported as 0.28 nM.
In the case of `CN(C)[C@H]1CC[C@H](Nc2ncc3nc(-c4ccc(NS(=O)(=O)CCC(F)(F)F)c(F)c4)cc(C(F)F)c3n2)CC1` [Compound 144, N-[(1,4-trans)-4-[8-(Difluoromethyl)-2-[[4-(dimethylamino)cyclohexyl]amino]pyrido[3,2-d]pyrimidin-6-yl]-2-fluoro-phenyl]-3,3,3-trifluoro-propane-1-sulfonamide], the IC50 is reported as 0.16 nM.
For `Cc1cc(-c2c(F)cc(NS(=O)(=O)Cc3ccc(F)cc3)cc2F)nc2cnc(N[C@H]3CC[C@H](N(C)C)CC3)nc12` [Compound 140, N-(4-(2-(((1,4-trans)-4-(Dimethylamino)cyclohexyl)amino)-8-methylpyrido[3,2-d]pyrimidin-6-yl)-3,5-difluorophenyl)-1-(4-fluorophenyl)methanesulfonamide], the IC50 was 4.5 nM.
`O=S(=O)(Cc1ccccc1)Nc1c(F)cc(-c2cc3cnc(N[C@@H]4CNC[C@@H](F)C4)nc3nc2OC2CCOC2)c(F)c1F` (single isomer, unassigned) [Compound 104] showed an IC50 of 0.66 nM.
Molecule `CCCS(=O)(=O)Nc1ccc(-c2cc(C)c3nc(N[C@@H]4CNC[C@@H](F)C4)ncc3n2)cc1F` [Compound 111, N-(2-Fluoro-4-(2-(((3S,5S)-5-fluoropiperidin-3-yl)amino)-8-methylpyrido[3,2-d]pyrimidin-6-yl)phenyl)propane-1-sulfonamide] has an IC50 of 2.1 nM.
`CCc1cc(-c2ccc(NS(=O)(=O)c3ccccc3Cl)c(F)c2)nc2cnc(N[C@@H]3CNC[C@@H](F)C3)nc12` [Compound 123, 2-Chloro-N-(4-(8-ethyl-2-(((3S,5S)-5-fluoropiperidin-3-yl)amino)pyrido[3,2-d]pyrimidin-6-yl)-2-fluorophenyl)benzenesulfonamide formate] gave an IC50 of 0.18 nM.
Molecule `O=S(=O)(Cc1ccccc1)Nc1ccc(-c2cc3cnc(N[C@@H]4CNC[C@@H](F)C4)nc3cn2)cc1F` [Compound 101, N-(2-Fluoro-4-(2-(((3S,5S)-5-fluoropiperidin-3-yl)amino)pyrido[3,4-d]pyrimidin-6-yl)phenyl)-1-phenylmethanesulfonamide] has an IC50 of 3 nM.
In the case of `Cc1cc(-c2ccc(NS(=O)(=O)c3ccccc3Cl)nc2)nc2cnc(N[C@H]3CC[C@H](N(C)C)CC3)nc12` [Compound 135, 2-Chloro-N-(5-(2-(((1,4-trans)-4-(dimethylamino)cyclohexyl)amino)-8-methylpyrido[3,2-d]pyrimidin-6-yl)pyridin-2-yl)benzenesulfonamide], the IC50 is reported as 0.32 nM.
